According to ChEMBL document CHEMBL1201862, “PubChem BioAssay data set” (2004):
Active and inactive are the calls of the source. Cut-off read from the data, not from the text of the source, for most assays here: actives have a measured EC50 and inactives only a lower limit.

Key:
[1] = biological target: T1, Heat shock factor protein 1 (Mus musculus, UniProt P38532); assay: inhibition of MG132-induced HSE-luciferase signal, confirmation, cell-based, NIH3T3, luminescence, dose retest (AID 2382); type: functional;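 note: NIH3T3 fibroblasts with HSF1-driven luciferase reporter stressed by proteasome inhibitor MG132; luminescence from HSF1-driven luciferase expression after 8 hours of MG132 stress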
T1 sequence (P38532 whole entry): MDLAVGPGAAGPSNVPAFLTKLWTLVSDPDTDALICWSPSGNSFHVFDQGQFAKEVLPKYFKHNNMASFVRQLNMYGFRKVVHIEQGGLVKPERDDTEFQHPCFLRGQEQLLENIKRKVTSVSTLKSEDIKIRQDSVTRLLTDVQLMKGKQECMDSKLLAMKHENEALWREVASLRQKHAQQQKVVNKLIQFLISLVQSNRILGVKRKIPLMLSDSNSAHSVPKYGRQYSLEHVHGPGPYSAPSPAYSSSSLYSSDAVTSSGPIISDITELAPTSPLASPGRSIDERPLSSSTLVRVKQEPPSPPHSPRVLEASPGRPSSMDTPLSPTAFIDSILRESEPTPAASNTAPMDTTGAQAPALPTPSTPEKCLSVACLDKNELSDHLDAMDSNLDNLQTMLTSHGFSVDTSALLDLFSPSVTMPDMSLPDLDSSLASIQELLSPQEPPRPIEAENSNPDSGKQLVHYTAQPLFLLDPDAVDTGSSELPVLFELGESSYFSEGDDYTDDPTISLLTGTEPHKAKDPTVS

[2] = biological target: T2, Corticotropin-releasing factor receptor 2/Corticotropin-releasing factor-binding protein (Homo sapiens, UniProt P24387+Q13324); assay: Dose Response confirmation of uHTS hits for small molecule antagonists of the CRF-binding protein and CRF-R2 receptor complex.; type: functional; details: read-out: IC50_Mean
T2 sequence (Q13324 whole entry): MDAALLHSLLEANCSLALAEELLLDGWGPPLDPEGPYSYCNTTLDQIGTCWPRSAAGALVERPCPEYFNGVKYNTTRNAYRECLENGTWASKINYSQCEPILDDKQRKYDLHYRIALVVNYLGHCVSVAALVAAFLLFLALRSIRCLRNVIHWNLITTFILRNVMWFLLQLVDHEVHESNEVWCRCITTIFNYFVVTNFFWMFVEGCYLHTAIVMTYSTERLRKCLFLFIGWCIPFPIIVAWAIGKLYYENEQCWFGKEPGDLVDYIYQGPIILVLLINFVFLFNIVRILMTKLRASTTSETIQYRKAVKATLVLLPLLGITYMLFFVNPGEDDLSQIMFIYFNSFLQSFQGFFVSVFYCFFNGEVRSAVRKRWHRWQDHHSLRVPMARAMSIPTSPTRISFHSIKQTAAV
T2 sequence (P24387 whole entry): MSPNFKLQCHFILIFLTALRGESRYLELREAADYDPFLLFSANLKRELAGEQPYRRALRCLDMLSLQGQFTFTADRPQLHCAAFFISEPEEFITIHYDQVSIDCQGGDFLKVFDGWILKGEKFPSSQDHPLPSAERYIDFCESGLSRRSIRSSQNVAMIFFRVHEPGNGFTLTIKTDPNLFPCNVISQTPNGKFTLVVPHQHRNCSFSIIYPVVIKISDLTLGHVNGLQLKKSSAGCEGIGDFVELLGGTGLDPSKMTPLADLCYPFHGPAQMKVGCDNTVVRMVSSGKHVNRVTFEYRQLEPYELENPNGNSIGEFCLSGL

[3] = biological target: T2, Corticotropin-releasing factor receptor 2/Corticotropin-releasing factor-binding protein; assay: activators of CRF receptor 2 with binding protein – uHTS hits, confirmation (AID 602473); type: functional; details: read-out: EC50_Mean
H4 = assay: Luminescence Cell-Based Dose Response HTS to Identify Activators of 5'UTR Stem-Loop Driven Prion Protein mRNA Translation in H4 Neuroglioblastoma Cells. [Related pubchem assays: 1829 (Project Summary), 1814 (Primary HTS)]; type: functional; details: Homo sapiens
[4] = Luminescence Cell-Based Dose Confirmation HTS to Identify Activators of 5'UTR Stem-Loop Driven Alpha-Synuclein mRNA Translation in H4 Neuroglioblastoma Cells. [Related pubchem assays: 1829 (Project Summary), 1814 (Primary HTS)]; type: functional
[5] = Luminescence Cell-Based Dose Response HTS to Identify Activators of Luciferase Translation or Activity in H4 […] Cells. [Related pubchem assays: 1829 (Project Summary), 1814 (Primary HTS)]; type: functional
[6] = inhibitors of firefly luciferase expression or activity, dose response, H4 neuroglioma cells, luminescence (AID 1990); type: functional, cell-based
[7] = Luminescence Cell-Based Dose Response HTS to Identify Inhibitors of 5'UTR Stem-Loop Driven Prion Protein mRNA Translation in H4 Neuroglioblastoma Cells. [Related pubchem assays: 1827 (Project Summary), 1813 (Primary HTS)]; type: functional
[8] = inhibitors of SNCA 5'UTR-driven reporter translation, confirmation, H4 neuroglioma cells, luminescence (AID 1988); type: functional, cell-based
Cytochrome P450 1A2 = biological target: T3, Cytochrome P450 1A2 (Homo sapiens, UniProt P05177);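 note: PubChem cytochrome P450 panel assay, CYP1A2 panel member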
T3 sequence (P05177 whole entry): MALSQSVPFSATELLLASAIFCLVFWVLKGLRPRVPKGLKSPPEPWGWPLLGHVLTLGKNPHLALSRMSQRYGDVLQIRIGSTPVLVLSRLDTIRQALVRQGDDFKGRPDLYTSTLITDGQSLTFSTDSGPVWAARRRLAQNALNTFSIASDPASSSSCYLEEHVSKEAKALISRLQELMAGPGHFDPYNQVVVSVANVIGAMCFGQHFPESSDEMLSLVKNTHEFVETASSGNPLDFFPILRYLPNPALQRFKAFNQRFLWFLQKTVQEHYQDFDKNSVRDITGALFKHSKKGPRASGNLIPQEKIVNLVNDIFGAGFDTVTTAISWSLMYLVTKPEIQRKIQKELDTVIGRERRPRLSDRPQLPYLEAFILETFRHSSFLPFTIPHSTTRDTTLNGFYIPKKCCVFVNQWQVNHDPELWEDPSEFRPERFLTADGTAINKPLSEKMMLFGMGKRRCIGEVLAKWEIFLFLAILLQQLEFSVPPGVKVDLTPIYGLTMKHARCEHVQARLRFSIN

## Cc1cccc2cc(CN(Cc3ccccc3)C(S)=NCCCN(C)C)c(O)nc12
[1]
  EC50: > 195 µM (not active)

## CCN(c1ccc(NS(=O)(=O)c2cc(Cl)ccc2Cl)cc1)C(C)C
[2]
  IC50: > 47.1 µM (inactive)
[3]
  EC50: > 53 µM (inactive)

## CCOc1ccc(NC(=O)C(C)NS(=O)(=O)c2ccc(NC(C)=O)cc2)cc1 (stereo unspecified)
[1]
  EC50: > 195 µM (not active)

## O=C(Nc1ccc(Br)cc1)C1Cc2ccccc2O/C1=N\O (stereo unspecified)
H4
  EC50: 9.69 µM (active)
[4]
  EC50: 11.3 µM (active)
[5]
  EC50: 7.85 µM (active)

## CCOC(=O)c1cc(C#N)c(N2CCN(c3ccccn3)CC2)nc1-c1ccccc1
[2]
  IC50: > 47.1 µM (inactive)
[3]
  EC50: > 53 µM (inactive)

## CCCNC(=O)COc1ccc2c(=O)c(Oc3ccccc3F)coc2c1
[1]
  EC50: > 195 µM (not active)

## COc1ccc(CN2C(=O)[C@@H]3Cc4c([nH]c5ccccc45)C(C)(C)N3C2=O)cc1
[6]
  EC50: > 120 µM (not active)
[7]
  EC50: > 120 µM (not active)
[8]
  EC50: > 120 µM (not active)

## Cc1ccccc1NC(=O)c1ccc2c(c1)OCCO2
[1]
  EC50: > 195 µM (not active)

## Cc1ccnc(N2CCCC(C(=O)NC3CC3)C2)n1 (stereo unspecified)
[2]
  IC50: > 47.1 µM (inactive)
[3]
  EC50: > 53 µM (inactive)

## Cc1c(C(=O)NCC2CCCO2)sc2nc(-c3ccc(F)cc3)cn12 (stereo unspecified)
[2]
  IC50: > 47.1 µM (inactive)
[3]
  EC50: > 53 µM (inactive)

## CCCOc1ccc(C(=O)NC(=S)Nc2nc3ccccc3s2)cc1
H4
  EC50: 48.3 µM (active)
[4]
  EC50: 20.9 µM (active)
[5]
  EC50: 22.5 µM (active)

## c1ccc(C2CSc3ccccc3N2)cc1 (stereo unspecified)
H4
  EC50: 22.5 µM (active)
[4]
  EC50: 16.9 µM (active)
[5]
  EC50: 27.5 µM (active)

## COc1cccc(OCc2cc(C(=O)N(C)Cc3nccn3C)no2)c1
H4
  EC50: > 120 µM (not active)
[4]
  EC50: 9.91 µM (active)
[5]
  EC50: 15.6 µM (active)

## Nc1nc(-c2ccc3ccccc3c2)cc(-c2cc(-c3ccc4ccccc4c3)nc(N)n2)n1
Cytochrome P450 1A2
  AC50: 501 nM (inconclusive)

## NS(=O)(=O)c1cccc(NC(=O)CNC(=O)CC23CC4CC(CC(C4)C2)C3)c1
[1]
  EC50: > 195 µM (not active)

## Cc1cc(C)nc(SCCC(=O)Nc2ccccc2C)n1
[2]
  IC50: > 47.1 µM (inactive)
[3]
  EC50: > 53 µM (inactive)

## CC(=O)Nc1cc(C(=O)N2CCC3(CC2)OCCO3)ccc1S(=O)(=O)c1ccc(C)cc1
[2]
  IC50: > 47.1 µM (inactive)
[3]
  EC50: > 53 µM (inactive)

## O=C(Cc1ccccc1)N/N=C/c1ccc2c(c1)OCO2
H4
  EC50: > 120 µM (not active)
[4]
  EC50: 1.52 µM (active)
[5]
  EC50: 103 µM (active)

## CCC(=O)Nc1cc(Cl)ccc1N1CCN(C(=O)CC)CC1
[2]
  IC50: > 47.1 µM (inactive)
[3]
  EC50: > 53 µM (inactive)

## CC1CCN(c2nc3ccc(C(=O)N4CCN(Cc5ccc6c(c5)OCO6)CC4)cc3s2)CC1
[1]
  EC50: 16.5 µM (active)

## Oc1ccc(Br)cn1
[6]
  EC50: > 120 µM (not active)
[7]
  EC50: > 120 µM (not active)
[8]
  EC50: > 120 µM (not active)

## COc1ccc(N=C(S)Nc2ccc(F)cc2)c(OC)c1
[1]
  EC50: > 195 µM (not active)

## O=S1(=O)CC/C(=N\Nc2ccc(F)cc2)c2ccsc21
[1]
  EC50: > 195 µM (not active)

## CCc1cc(C)cc(OCCNC(=O)c2cncc(Br)c2)c1
[1]
  EC50: > 195 µM (not active)

## O=C(CCSc1ccccc1)N1CCN(c2ccccc2)CC1
H4
  EC50: 28.4 µM (active)
[4]
  EC50: > 120 µM (not active)
[5]
  EC50: 15.5 µM (active)

## CC(=O)Nc1ccc(S(=O)(=O)N2CCC(c3nnc(-c4ccc(C)cc4)o3)CC2)cc1
[2]
  IC50: > 47.1 µM (inactive)
[3]
  EC50: > 53 µM (inactive)

## COc1ccc(CCN2C(=O)CC(Cc3ccccc3)C2=O)cc1OC (stereo unspecified)
[2]
  IC50: > 47.1 µM (inactive)
[3]
  EC50: > 53 µM (inactive)

## COc1ccc(CN=C(S)Nc2ccc(-c3ccccc3)cc2)cc1
[6]
  EC50: > 120 µM (not active)
[7]
  EC50: > 120 µM (not active)
[8]
  EC50: > 120 µM (not active)

## Cc1cc(C)cc(N(CC(=O)Nc2ccc(Br)cc2)S(=O)(=O)c2c(C)nc(O)nc2O)c1
[1]
  EC50: > 195 µM (not active)

## C=C(C)CSc1nc2cc(Cl)c[nH]c-2n1
H4
  EC50: 84.5 µM (active)
[4]
  EC50: 19 µM (active)
[5]
  EC50: 50.8 µM (active)

## CCOC(=O)c1c(C(F)(F)C(F)(F)C(F)(F)C(F)(F)F)n[nH]c1C
[2]
  IC50: > 47.1 µM (inactive)
[3]
  EC50: > 53 µM (inactive)

## Cc1c(Cc2ccccc2)sc(N)c1C(N)=O
[6]
  EC50: 22.7 µM (active)
[7]
  EC50: > 120 µM (not active)
[8]
  EC50: > 120 µM (not active)

## CCOc1cc2c(cc1OCC)C(c1ccc(OC)cc1)N(c1ccccc1)C(=O)C2 (stereo unspecified)
[1]
  EC50: > 195 µM (not active)

## CC(C)c1ccc(NC(S)=NC2CCCCCC2)cc1
H4
  EC50: 22 µM (active)
[4]
  EC50: 0.166 µM (active)
[5]
  EC50: 14.3 µM (active)

## Cc1ccc2c(c1)cc1c(O)nncn12
H4
  EC50: 24.7 µM (active)
[4]
  EC50: 15.6 µM (active)
[5]
  EC50: 9.57 µM (active)

## CCOC(=O)c1cccnc1NC(=O)c1ccncc1
[1]
  EC50: > 195 µM (not active)

## COc1ccc(C(=O)Cc2cnn(-c3ccccc3)c2)c(O)c1
H4
  EC50: > 120 µM (not active)
[4]
  EC50: 0.135 µM (active)
[5]
  EC50: 1.58 µM (active)

## COc1ccc(NC(=O)c2sc3nc(N4CCCC4)c4c(c3c2N)CC(C)(C)OC4)c(OC)c1
[6]
  EC50: 35.2 µM (active)
[7]
  EC50: 31.3 µM (active)
[8]
  EC50: 14.7 µM (active)

## COc1ccc(-c2nc3n(n2)C(c2ccccc2)C2=C(O)CCCC2=N3)cc1OC (stereo unspecified)
[1]
  EC50: > 195 µM (not active)

## Cc1cc(C)n(C(CC(=O)O)C(=O)O)n1 (stereo unspecified)
[1]
  EC50: > 195 µM (not active)

## C/C(=N\NS(=O)(=O)c1ccccc1)c1ccc2c(c1)OCCO2
[1]
  EC50: > 195 µM (not active)

## O=C(NC(C(=O)c1ccccc1)n1ccc(=O)[nH]c1=O)c1ccccc1 (stereo unspecified)
H4
  EC50: 16.4 µM (active)
[4]
  EC50: 7.39 µM (active)
[5]
  EC50: 11.9 µM (active)

## Cc1ccnc(N2CCCC(C(=O)NCc3cccs3)C2)n1 (stereo unspecified)
[1]
  EC50: > 195 µM (not active)

## O=C(NCc1cccs1)c1ccc(N2CCCCC2)nc1
H4
  EC50: 31.5 µM (active)
[4]
  EC50: > 120 µM (not active)
[5]
  EC50: 30.9 µM (active)

## CN(c1ccccc1C(=O)Nc1cccc([N+](=O)[O-])c1)S(C)(=O)=O
[6]
  EC50: > 120 µM (not active)
[7]
  EC50: 16.8 µM (active)
[8]
  EC50: > 120 µM (not active)
